Experimental data published in patent EP4095134A1, “POLYCYCLIC COMPOUNDS FOR THE TREATMENT OF NEUROLOGICAL INDICATIONS” (UCL Business Ltd, priority 2021, dated 2022).

Target: T1, P2Y1 receptor (Homo sapiens, UniProt P47900)
T1 construct: expressed in transfected cells
Assay: P2Y1 IP1 accumulation HTRF assay, antagonism of agonist MRS2365 in stably transfected cells
Format: cell-based
Conditions: 5nM MRS2365, values rounded to nearest whole number
Description: IC50 values were determined using a cell based assay in stably transfected cells overexpressing the P2Y1 receptor. The assay system is a […] (HTRF) assay measuring accumulation of the intracellular messenger inositol monophosphate (IP1), generated intracellularly following activation of P2Y1. Activity of test compounds was generated by measuring antagonism of the increase in IP1 generated by addition of a selective P2Y1 agonist, MRS2365.
P2Y1 overexpressing cells were maintained in T175 flasks. The day before the assay, these cells were split and 20µl cell suspension transferred to each well of white 384-well assay plates at a cell density of 0.5x10^6 cells/mL. Plates were pulse centrifuged, then incubated overnight at 37°C / 5% CO2 prior to assay.
On day of assay, medium was removed from cells and replaced with stimulation buffer. Compounds were prepared in 100% DMSO for addition to cells using the Tecan D300e digital dispenser; compounds were prepared in cassette heads and added directly to wells in the required concentration range, to give a 10-point concentration response curve from 10µM with semi-log dilutions and a final DMSO concentration of 0.1%. Positive control antagonist curves with standard compounds were included on each plate. Plates were incubated with antagonists for 1 hour prior to addition of 5nM of the agonist MRS2365, dispensed using a Bravo liquid handler. Following agonist addition, plates were incubated for 60 minutes prior to assay. Both incubations were carried out at 37°C / 5% CO2.
For the assay, IP1 accumulation was quantified using the IPOne kit according to manufacturer's instructions. In short, a standard curve was prepared for IP 1 quantification, and cells lysed using kit lysis buffer. Assay reagents were added to the lysates, and incubated for 1 hour at room temperature without spinning or shaking. Plates were analysed on a BMG Pherastar plate reader, and IP1 signal generated in cells interpolated from the standard curve.
For all reported results, N is greater than or equal to 4. An individual N refers to one assay run with a single weighing of compound. A minimum of two assay runs were performed for each of two independent weighings of compound. Results (racemic)

T1 sequence (P47900 whole entry): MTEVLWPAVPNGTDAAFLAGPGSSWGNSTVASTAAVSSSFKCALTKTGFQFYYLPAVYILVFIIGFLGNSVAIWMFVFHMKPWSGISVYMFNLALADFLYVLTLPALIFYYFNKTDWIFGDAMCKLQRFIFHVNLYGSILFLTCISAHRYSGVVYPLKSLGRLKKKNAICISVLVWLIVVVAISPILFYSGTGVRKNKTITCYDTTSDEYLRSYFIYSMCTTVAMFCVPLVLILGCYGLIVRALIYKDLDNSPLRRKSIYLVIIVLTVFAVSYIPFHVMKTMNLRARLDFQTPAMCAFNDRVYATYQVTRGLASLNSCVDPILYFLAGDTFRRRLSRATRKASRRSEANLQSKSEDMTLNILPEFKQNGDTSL

Structure (SMILES) | IC50 (racemic, N >= 4) [nM] | IC50 (single enantiomer) [nM]
COc1ccc(F)c(NC(=O)Nc2ccc(C)nc2Oc2ccccc2C2(C(F)(F)F)CCO2)c1 (racemic) [S44, 1-(2-fluoro-5-methoxyphenyl)-3-(6-methyl-2-(2-(2-(trifluoromethyl)oxetan-2-yl)phenoxy)pyridin-3-yl)urea] | 348 | 
O=C(Nc1ccc(C(F)(F)F)cn1)Nc1cccnc1Oc1ccccc1C1(C(F)(F)F)CCO1 (racemic) [S38, 1-(2-(2-(2-(trifluoromethyl)oxetan-2-yl)phenoxy)pyridin-3-yl)-3-(5-(trifluoromethyl)pyridin-2-yl)urea] | 248 | 
Cc1ccc(NC(=O)Nc2ccc(Cl)cc2)c(Oc2ccccc2C2(C(F)(F)F)CCO2)n1 (racemic) [S18, 1-(4-chlorophenyl)-3-(6-methyl-2-(2-(2-(trifluoromethyl)oxetan-2-yl)phenoxy)pyridin-3-yl)urea] | 118 | 
O=C(Nc1ccc(OC(F)(F)F)cc1F)Nc1ccc(Cl)nc1Oc1ccccc1C1(C(F)(F)F)CCO1 (racemic) [S14, 1-(6-chloro-2-(2-(2-(trifluoromethyl)oxetan-2-yl)phenoxy)pyridin-3-yl)-3-(2-fluoro-4-(trifluoromethoxy)phenyl)urea] | 94 | 
N#Cc1ccc(NC(=O)Nc2cccnc2Oc2ccccc2C2(C(F)(F)F)CCO2)c(F)c1 (racemic) [S72, 1-(4-cyano-2-fluorophenyl)-3-(2-(2-(2-(trifluoromethyl)oxetan-2-yl)phenoxy)pyridin-3-yl)urea] | 1490 | 
Cc1ccc(NC(=O)Nc2ccc(Cl)c(F)c2)c(Oc2ccccc2C2(C(F)(F)F)CCO2)n1 (racemic) [S17, 1-(4-chloro-3-fluorophenyl)-3-(6-methyl-2-(2-(2-(trifluoromethyl)oxetan-2-yl)phenoxy)pyridin-3-yl)urea] | 114 | 
Cc1c(Oc2ncccc2NC(=O)Nc2ccc(OC(F)(F)F)cc2)cccc1C1COC1 (racemic) [S91] | 1370 | 
O=C(Nc1ccccc1)Nc1cccnc1Oc1ccccc1C1(C(F)F)CCO1 (racemic) [S80] | 3280 | 
O=C(Nc1cc(OC(F)(F)F)ccc1F)Nc1cccnc1Oc1ccc(F)cc1C1(C(F)(F)F)CCO1 (racemic) [S40, 1-(2-(4-fluoro-2-(2-(trifluoromethyl)oxetan-2-yl)phenoxy)pyridin-3-yl)-3-(2-fluoro-5-(trifluoromethoxy)phenyl)urea] | 278 | 
O=C(Nc1ccc(OC(F)(F)F)cn1)Nc1cccnc1Oc1ccccc1C1(C(F)(F)F)CCO1 (racemic) [S50, 1-(5-(trifluoromethoxy)pyridin-2-yl)-3-(2-(2-(2-(trifluoromethyl)oxetan-2-yl)phenoxy)pyridin-3-yl)urea] | 465 | 
CN1CC[C@@]1(c1ccccc1Oc1ncccc1NC(=O)Nc1ccc(OC(F)(F)F)cc1F)C(F)(F)F (single isomer, unassigned) [S98] |  | 26
Cc1ccc(NC(=O)Nc2ccc(Cl)cc2F)c(Oc2ccc(F)cc2C2(C(F)(F)F)CCO2)n1 (racemic) [S16, 1-(4-chloro-2-fluorophenyl)-3-(2-(4-fluoro-2-(2-(trifluoromethyl)oxetan-2-yl)phenoxy)-6-methylpyridin-3-yl)urea] | 108 | 
O=C(Nc1ccc(C(F)(F)F)cc1)Nc1cccnc1Oc1ccccc1C1(C(F)(F)F)CCO1 (racemic) [S25, 1-(2-(2-(2-(trifluoromethyl)oxetan-2-yl)phenoxy)pyridin-3-yl)-3-(4-(trifluoromethyl)phenyl)urea] | 146 | 
COc1cc(NC(=O)Nc2ccc(C)nc2Oc2ccccc2C2(C(F)(F)F)CCO2)ccc1F (racemic) [S67, 1-(4-fluoro-3-methoxyphenyl)-3-(6-methyl-2-(2-(2-(trifluoromethyl)oxetan-2-yl)phenoxy)pyridin-3-yl)urea] | 1060 | 
CCN1CCC1(c1ccccc1Oc1ncccc1NC(=O)Nc1ccc(OC(F)(F)F)cc1)C(F)(F)F (racemic) [S5] | 43 | 
O=C(Nc1ccc(Cl)cc1F)Nc1cccnc1Oc1ccccc1C1(C(F)(F)F)CCO1 (racemic) [S29, 1-(4-chloro-2-fluorophenyl)-3-(2-(2-(2-(trifluoromethyl)oxetan-2-yl)phenoxy)pyridin-3-yl)urea] | 165 | 
